Consider 3 compounds from US10815221B2, “Crystal forms of an androgen receptor antagonist, preparation method and use thereof” (Crystal Pharmaceutical (Suzhou) Co., Ltd., priority 2016, dated 2020).

Values after ≈ are worked out from the molar mass of the structure shown. “Also recorded” adds a separate entry of the source.

Holding throughout (format): physicochemical
The nature of data set [1]: Storage stability of crystalline form (XRPD). As to conditions: for Change of Solid Form: 3 months. The protocol:
Samples of Form B were stored under different conditions of 25° C./60% RH (open), 40° C./75% RH (open) for 3 months, and XRPD was applied to test the crystalline form.
Samples of Form C were stored at 25° C./60% RH (open) for 1 month, and XRPD was applied to test the crystalline form.

The nature of data set [2]: Solubility in SGF, FeSSIF and FaSSIF by HPLC. As to the method: High Performance Liquid Chromatography (HPLC) data in the present disclosure are collected from Agilent 1260 with diode array detector (DAD).
The HPLC method parameters for solubility in the present disclosure are as follows:
1. Column: Agilent Infinity Lab Poroshell 120 EC-C18 150*3.0 mm, 2.7 μm
2. Mobile Phase: A: 25 mmol/L KH2PO4 aqueous solution
3. Flow rate: 0.7 mL/min 4. Injection Volume: 5 μL 5. Detection wavelength: 220 nm 6. Column Temperature: 40° C. 7. Diluent: Acetonitrile/H2O (v/v, 1/1)
Samples of Form B in the present disclosure and crystalline form I disclosed in WO2016120530A1 were suspended into SGF (simulated gastric fluids, pH=1.8), FeSSIF (Fed state simulated intestinal fluids, pH=5.0) and FaSSIF (Fasted state simulated intestinal fluids, pH=6.5) to get saturated solutions. After equilibrated for 1 hour and 4 hours, concentrations of the saturated solutions were measured by HPLC.
Samples of Form C in the present disclosure and crystalline form I disclosed in WO2016120530A1 were suspended into FeSSIF (Fed state simulated intestinal fluids, pH=5.0) and FaSSIF (Fasted state simulated intestinal fluids, pH=6.5) to get saturated solutions. After equilibrated for 1 hour and 4 hours, concentrations of the saturated solutions were measured by HPLC.

Data set [3] is described as follows: Grinding stability (XRPD before and after grinding). As to conditions: manually ground in a mortar for 5 minutes. As to the method:
About 20 mg of Form C in the present disclosure and crystalline form I disclosed in WO2016120530A1 were manually ground in a mortar for 5 minutes. XRPD tests of the samples before and after grinding were carried out. The XRPD patterns of Form C were shown in FIG. 20 (top: XRPD pattern after grinding, bottom: XRPD pattern before grinding), and the XRPD patterns of crystalline form I were shown in FIG. 21 (top: XRPD pattern after grinding, bottom: XRPD pattern before grinding).

Data set [4] is described as follows: Hygroscopicity by dynamic vapor sorption (DVS). To be noted: for Hygroscopicity / Weight gain under 80% RH: DVS, 80% RH; for Solid Form after DVS: XRPD after DVS test. The protocol: Dynamic vapor sorption (DVS) was applied to test hygroscopicity of Form B, Form C and crystalline form I in the prior art with about 10 mg of samples. The DVS plot of Form B is substantially as depicted in FIG. 10 and the XRPD pattern overlay before and after DVS test of Form B is substantially as depicted in FIG. 11. The DVS plot of Form C is substantially as depicted in FIG. 12 and the XRPD pattern overlay before and after DVS test of Form C is substantially as depicted in FIG. 13. The DVS plot of crystalline form I in the prior art is substantially as depicted in FIG. 14.

Data set [5] in a line: Particle size distribution (laser particle size analyzer). As to conditions: for D10 / D50 / D90 / MV (average particle size by volume): wet process, Isopar G. As to the method: The particle size distribution test in the present disclosure is acquired by the S3500 laser particle size analyzer of Microtrac. Microtrac S3500 is equipped with the SDC (Sample Delivery Controller). The test is carried out by wet process, and the dispersion medium is Isopar G. The parameters are as follows:
The particle size distribution of Form B in the present disclosure and Form I disclosed in WO2016120530A1 were tested.

Regarding `CC(O)c1cc(C(=O)N[C@@H](C)Cn2ccc(-c3ccc(C#N)c(Cl)c3)n2)n[nH]1` (single isomer, unassigned) [Form C], the “Time the form keeps stable” value in data set [1] (25° C./60% RH) is on record as “at least 1 month”. The Solubility (usually the concentration that dissolves in the medium under given conditions) in data set [2] (FaSSIF pH=6.5, 1 hour) amounted to 0.039 mg/mL (≈ 97.8 µM); in data set [2] (FaSSIF pH=6.5, 4 hours), 0.0355 mg/mL (≈ 89 µM); in data set [2] (FeSSIF pH=5.0, 1 hour), 0.4696 mg/mL (≈ 1180 µM); in data set [2] (FeSSIF pH=5.0, 4 hours) it was 0.1631 mg/mL (≈ 409 µM). For the same compound, the Crystallinity after grinding entry in data set [3] is on record as “remains good crystallinity after grinding”. For the same compound, the Hygroscopicity result in data set [4] was “slightly hygroscopic”. Also, in data set [4], the “Weight gain under 80% RH” value is on record as 1.60%. Besides, the “Solid Form after DVS” value in data set [4] was “remain unchanged; also recorded: Form C”.

In the case of `CC(O)c1cc(C(=O)N[C@@H](C)Cn2ccc(-c3ccc(C#N)c(Cl)c3)n2)n[nH]1` (single isomer, unassigned) [Form B], in data set [1] (25° C./60% RH), the “Time the form keeps stable” value is on record as “at least 3 months”. Also, the “Change of Solid Form” value in data set [1] (25° C./60% RH (open)) is given as “physically stable”. Also, the “Time the form keeps stable” value in data set [1] (40° C./75% RH) is given as “at least 3 months”. Further, the “Change of Solid Form” value in data set [1] (40° C./75% RH (open)) was “physically stable”. In data set [5], the “Particle size distribution pattern” value was “unimodal and normal distribution”; the D10 is listed as 1.20 μm; the D50 was 2.73 μm; the D90 was found to be 5.49 μm. The “MV (average particle size by volume)” value in data set [5] was 3.12 μm. In data set [2] (FaSSIF pH=6.5, 1 hour), this compound returned a Solubility of 0.003 mg/mL (≈ 7.52 µM). Also, the Solubility in data set [2] (FaSSIF pH=6.5, 4 hours) was determined as 0.0005 mg/mL (≈ 1.25 µM). The Solubility in data set [2] (FeSSIF pH=5.0, 1 hour) turned out to be 0.4081 mg/mL (≈ 1020 µM). The same compound displayed a Solubility in data set [2] (SGF pH=1.8, 1 hour) of 0.0627 mg/mL (≈ 157 µM). In data set [2] (SGF pH=1.8, 4 hours), this compound gave a Solubility of 0.0335 mg/mL (≈ 84 µM). Further, in data set [2] (fed state simulated intestinal fluid (FeSSIF), pH 5, fessif, thermodynamic from solid, FeSSIF pH=5.0, 4 hours), the solubility – broadly, the dissolved amount per volume that the medium holds – at 4 h was 0.288 mg/mL (≈ 722 µM). Moreover, in data set [4], the Hygroscopicity result was “slightly hygroscopic”, the “Weight gain under 80% RH” value turned out to be 0.93% and the “Solid Form after DVS” value is given as “remain unchanged; also recorded: Form B”.

In the case of `CC(O)c1cc(C(=O)N[C@@H](C)Cn2ccc(-c3ccc(C#N)c(Cl)c3)n2)n[nH]1` (some centres unmarked) [Crystalline form I, reference compound], the “Particle size distribution pattern” value in data set [5] is given as “bimodal distribution”. Moreover, the D10 in data set [5] worked out at 24.97 μm. Moreover, the D50 in data set [5] came out at 100.5 μm. Moreover, the D90 in data set [5] was 297.4 μm. In addition, the “MV (average particle size by volume)” value in data set [5] turned out to be 136.1 μm. Also, the Solubility was determined as 0.001 mg/mL (≈ 2.51 µM) in data set [2] (FaSSIF pH=6.5, 1 hour); 0.0001 mg/mL (≈ 0.251 µM) in data set [2] (FaSSIF pH=6.5, 4 hours); 0.1831 mg/mL (≈ 459 µM) in data set [2] (FeSSIF pH=5.0, 1 hour); 0.2063 mg/mL (≈ 517 µM) in data set [2] (FeSSIF pH=5.0, 4 hours); 0.014 mg/mL (≈ 35.1 µM) in data set [2] (SGF pH=1.8, 1 hour); 0.0099 mg/mL (≈ 24.8 µM) in data set [2] (SGF pH=1.8, 4 hours). In addition, the Crystallinity after grinding entry in data set [3] is recorded as “decreased significantly”. Further, the Hygroscopicity entry in data set [4] is reported as “hygroscopic”. In data set [4], the “Weight gain under 80% RH” value was over 2.37%.
